Target: OGG1 (Homo sapiens (Human), UniProt O15527)
Assay: OGG1 inhibitor assay with fluorogenic OGR1 probe (base excision, initial rates)
Format: biochemical
Conditions: for Enzyme activity, % of control at 2 μM: 2 μM compound; for Enzyme activity, % of control at 2 μM / Enzyme activity, % of control at 20 μM / Enzyme activity, % of control at 200 nM: ratio of initial rate slope (first 12 min) to no-compound control; for Enzyme activity, % of control at 20 μM: 20 μM compound; for IC50: initial rates method
Procedure: Methods: Synthesized compounds and hOGG1 (100 nM) were incubated in NEBuffer 4 (1×) with BSA (1×) at 37° C. (15 min) in 100 μL reaction volumes in a black 96-well plate. (See, e.g., Edwards, S. K., et al., ChemBioChem 2015, 16, 1637-1646, the disclosure of which is incorporated herein by reference.) After that, OGR1 (1.2 μM) was added to the reaction mixture. Fluorescence at 460 nm was measured on a Thermo Fluoroskan Ascent FL fluorescence plate reader (λex=355 nm). The slope of initial rate (12 min) was calculated, and % of control was used for inhibition activity. BSA, hOGG1 and NEBuffer 4 were purchased from New England Biolabs and used. UltraPure Distilled Water (Invitrogen) was purchased and used for the assay.

OGG1, sequence (O15527 whole entry): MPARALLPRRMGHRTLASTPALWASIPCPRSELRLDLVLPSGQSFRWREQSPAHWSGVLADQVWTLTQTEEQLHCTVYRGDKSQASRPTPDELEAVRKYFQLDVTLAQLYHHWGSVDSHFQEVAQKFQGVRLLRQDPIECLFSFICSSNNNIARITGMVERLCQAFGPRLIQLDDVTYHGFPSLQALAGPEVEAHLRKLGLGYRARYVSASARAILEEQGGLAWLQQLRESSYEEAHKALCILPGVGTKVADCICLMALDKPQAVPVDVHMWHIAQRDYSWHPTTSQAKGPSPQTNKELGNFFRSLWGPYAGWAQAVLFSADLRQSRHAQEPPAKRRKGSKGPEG

CCOc1ccc(S(=O)(=O)Nc2ccc3c(c2)CN(C(=O)C2CC2)CC3)cc1 [Compound 17]
Enzyme activity, % of control at 2 μM: 94 % of control
Enzyme activity, % of control at 20 μM: 88 % of control

CCNc1ccc(S(=O)(=O)Nc2ccc3c(c2)N(C(=O)C2CC2)CCC3)cc1 [Compound 25]
Enzyme activity, % of control at 200 nM (200 nM compound): ≥100 % of control
Enzyme activity, % of control at 2 μM: 58 % of control
Enzyme activity, % of control at 20 μM: 10 % of control

CCOc1ccc(S(=O)(=O)Nc2ccc3c(c2)N(C(=O)C2CC2)CCO3)cc1 [Compound 15]
Enzyme activity, % of control at 2 μM: 90 % of control
Enzyme activity, % of control at 20 μM: 41 % of control

O=C(C1CC1)N1CCCc2ccc(NS(=O)(=O)c3ccc(-c4ccc(C(F)(F)F)cc4)cc3)cc21 [Compound 35]
Enzyme activity, % of control at 200 nM (200 nM compound): 97 % of control
Enzyme activity, % of control at 2 μM: 72 % of control

CCOc1ccc(S(=O)(=O)Nc2ccc3c(c2)N(S(=O)(=O)CC)CCC3)cc1 [Compound 9]
Enzyme activity, % of control at 2 μM: 96 % of control
Enzyme activity, % of control at 20 μM: 92 % of control

CCOc1ccc(S(=O)(=O)Nc2ccc3c(c2)N(C(=O)NC2CC2)CCC3)cc1 [Compound 10]
Enzyme activity, % of control at 2 μM: 87 % of control
Enzyme activity, % of control at 20 μM: 77 % of control

CCOc1ccc(S(=O)(=O)Nc2ccc3c(c2)N(C(=O)CC)CC3)cc1 [Compound 13]
Enzyme activity, % of control at 2 μM: 95 % of control
Enzyme activity, % of control at 20 μM: ≥100 % of control

CCCc1ccc(S(=O)(=O)Nc2ccc3c(c2)N(C(=O)C2CC2)CCC3)cc1 [Compound 23]
Enzyme activity, % of control at 200 nM (200 nM compound): 74 % of control
Enzyme activity, % of control at 2 μM: 35 % of control
Enzyme activity, % of control at 20 μM: 14 % of control

O=C(C1CC1)N1CCCc2ccc(NS(=O)(=O)c3ccc4oc5ccccc5c4c3)cc21 [Compound 29]
Enzyme activity, % of control at 2 μM: 82 % of control
Enzyme activity, % of control at 20 μM: 71 % of control

CN(C)c1cccc(-c2ccc(S(=O)(=O)Nc3ccc4c(c3)N(C(=O)C3CC3)CCC4)cc2)c1 [Compound 38]
Enzyme activity, % of control at 200 nM (200 nM compound): 70 % of control

CCOc1ccc(S(=O)(=O)Nc2ccc3c(c2)N(C(=O)Cc2ccccc2)CCC3)cc1 [Compound 3]
Enzyme activity, % of control at 2 μM: ≥100 % of control
Enzyme activity, % of control at 20 μM: 79 % of control

CCOc1ccc(S(=O)(=O)N(C)c2ccc3c(c2)N(C(=O)C2CC2)CCC3)cc1 [Compound 19]
Enzyme activity, % of control at 2 μM: 84 % of control
Enzyme activity, % of control at 20 μM: 79 % of control

CCOc1ccc(S(=O)(=O)Nc2ccc3c(c2)N(CC2CC2)CCC3)cc1 [Compound 11]
Enzyme activity, % of control at 2 μM: ≥100 % of control
Enzyme activity, % of control at 20 μM: 83 % of control

NNC(=O)c1sc2cccc(Cl)c2c1Cl [Compound O8, reference compound]
Enzyme activity, % of control at 2 μM: 69 % of control
Enzyme activity, % of control at 20 μM: 45 % of control

CCOc1ccc(S(=O)(=O)Nc2cccc(NC(C)=O)c2)cc1 [Compound 12]
Enzyme activity, % of control at 2 μM: 96 % of control
Enzyme activity, % of control at 20 μM: 70 % of control

CCOc1ccc(S(=O)(=O)Nc2ccc3c(c2)N(C(=O)C(C)(C)C)CCC3)cc1 [Compound 6]
Enzyme activity, % of control at 20 μM: ≥100 % of control

O=C(C1CC1)N1CCCc2ccc(NS(=O)(=O)c3ccc(-n4cccn4)cc3)cc21 [Compound 33]
Enzyme activity, % of control at 200 nM (200 nM compound): 81 % of control
Enzyme activity, % of control at 2 μM: 45 ± 1.3 % of control
Enzyme activity, % of control at 20 μM: 14 ± 3.2 % of control

CCOc1ccc(S(=O)(=O)Nc2ccc3c(c2)N(C(=O)C2CC2)CCC3)cc1C [Compound 27]
Enzyme activity, % of control at 2 μM: 71 % of control
Enzyme activity, % of control at 20 μM: 22 % of control

CCOc1ccc(S(=O)(=O)N(O)c2ccc3c(c2)N(C(=O)C2CC2)CCC3)cc1 [Compound 18]
Enzyme activity, % of control at 200 nM (200 nM compound): ≥100 % of control
Enzyme activity, % of control at 2 μM: 79 % of control
Enzyme activity, % of control at 20 μM: 21 % of control

O=C(C1CC1)N1CCCc2ccc(NS(=O)(=O)c3ccc(-c4ccccc4)cc3)cc21 [Compound 30]
Enzyme activity, % of control at 200 nM (200 nM compound): 90 ± 6.2 % of control
Enzyme activity, % of control at 2 μM: 29 ± 7.0 % of control

COc1cccc(-c2ccc(S(=O)(=O)Nc3ccc4c(c3)N(C(=O)C3CC3)CCC4)cc2)c1 [Compound 37]
Enzyme activity, % of control at 200 nM (200 nM compound): 67 % of control
Enzyme activity, % of control at 2 μM: 13 % of control

CNC(=O)c1cccc(-c2ccc(S(=O)(=O)Nc3ccc4c(c3)N(C(=O)C3CC3)CCC4)cc2)c1 [Compound 40]
Enzyme activity, % of control at 200 nM (200 nM compound): 48 % of control

CCOc1ccc(C(=O)Nc2ccc3c(c2)N(C(=O)C2CC2)CCC3)cc1 [Compound 20]
Enzyme activity, % of control at 2 μM: ≥100 % of control
Enzyme activity, % of control at 20 μM: ≥100 % of control

CCOc1ccc(S(=O)(=O)Nc2ccc3c(c2)N(C(=O)C2CC2)CCC3)cc1 [Compound 7]
Enzyme activity, % of control at 200 nM (200 nM compound): 82 ± 12 % of control
Enzyme activity, % of control at 2 μM: 41 ± 1.7 % of control
Enzyme activity, % of control at 20 μM: 5.8 ± 1.9 % of control
IC50: 1.1 µM

O=C(C1CC1)N1CCCc2ccc(NS(=O)(=O)c3ccc(Oc4ccccc4)cc3)cc21 [Compound 28]
Enzyme activity, % of control at 200 nM (200 nM compound): ≥100 % of control
Enzyme activity, % of control at 2 μM: 41 ± 2.0 % of control
Enzyme activity, % of control at 20 μM: 8.3 % of control
IC50: 1.5 µM

CCOc1ccc(S(=O)(=O)Nc2ccc3c(c2)N(C(=O)C2CCC2)CCC3)cc1 [Compound 8]
Enzyme activity, % of control at 2 μM: 69 % of control
Enzyme activity, % of control at 20 μM: 33 % of control

CCCOc1ccc(S(=O)(=O)Nc2ccc3c(c2)N(C(=O)C2CC2)CCC3)cc1 [Compound 24]
Enzyme activity, % of control at 200 nM (200 nM compound): 95 % of control
Enzyme activity, % of control at 2 μM: 19 % of control

CSc1ccc(S(=O)(=O)Nc2ccc3c(c2)N(C(=O)C2CC2)CCC3)cc1 [Compound 26]
Enzyme activity, % of control at 200 nM (200 nM compound): 75 % of control
Enzyme activity, % of control at 2 μM: 53 % of control
Enzyme activity, % of control at 20 μM: 3.6 % of control

O=C(C1CC1)N1CCCc2ccc(NS(=O)(=O)c3ccc(-c4cccnc4)cc3)cc21 [Compound 34]
inhibition of activity at 200 nM (200 nM compound): ca. 40%
Enzyme activity, % of control at 200 nM (200 nM compound): 61 ± 1.3 % of control
Enzyme activity, % of control at 2 μM: 23 ± 1.5 % of control
Enzyme activity, % of control at 20 μM: 2.0 % of control
IC50: 0.27 µM

COc1ccc(-c2ccc(S(=O)(=O)Nc3ccc4c(c3)N(C(=O)C3CC3)CCC4)cc2)cc1 [Compound 36]
Enzyme activity, % of control at 200 nM (200 nM compound): 79 % of control
Enzyme activity, % of control at 2 μM: 31 % of control

O=C(C1CC1)N1CCCc2ccc(NS(=O)(=O)c3ccc(C4CCCCC4)cc3)cc21 [Compound 31]
Enzyme activity, % of control at 200 nM (200 nM compound): 87 % of control
Enzyme activity, % of control at 2 μM: 25 % of control

CCOc1ccc(S(=O)(=O)Nc2cc3c(cc2OC)CCCN3C(=O)C2CC2)cc1 [Compound 16]
Enzyme activity, % of control at 2 μM: ≥100 % of control
Enzyme activity, % of control at 20 μM: 93 % of control

CCOc1ccc(S(=O)(=O)Nc2ccc3c(c2)N(C(=O)CC)CCC3)cc1 [Compound 2]
Enzyme activity, % of control at 2 μM: 51 ± 1.4 % of control
Enzyme activity, % of control at 20 μM: 3.7 ± 0.83 % of control

CCC(=O)N1CCCc2ccc(NS(=O)(=O)CC)cc21 [Compound 22]
Enzyme activity, % of control at 2 μM: 94 % of control
Enzyme activity, % of control at 20 μM: 74 % of control

CCOc1ccc(S(=O)(=O)Nc2ccc3c(c2)N(C(=O)C2CC2)CCCC3)cc1 [Compound 14]
Enzyme activity, % of control at 2 μM: 76 % of control
Enzyme activity, % of control at 20 μM: 35 % of control

O=C(C1CC1)N1CCCc2ccc(NS(=O)(=O)c3ccc(N4CCOCC4)cc3)cc21 [Compound 32]
Enzyme activity, % of control at 200 nM (200 nM compound): 84 % of control
Enzyme activity, % of control at 2 μM: 76 % of control

CCOc1ccc(NC(=O)Nc2ccc3c(c2)N(C(=O)C2CC2)CCC3)cc1 [Compound 21]
Enzyme activity, % of control at 2 μM: ≥100 % of control
Enzyme activity, % of control at 20 μM: ≥100 % of control

CCOc1ccc(S(=O)(=O)Nc2ccc3c(c2)N(C(=O)C(C)C)CCC3)cc1 [Compound 5]
Enzyme activity, % of control at 2 μM: 96 % of control
Enzyme activity, % of control at 20 μM: 52 % of control

CCOc1ccc(S(=O)(=O)Nc2ccc3c(c2)N(C(=O)CCOC)CCC3)cc1 [Compound 4]
Enzyme activity, % of control at 2 μM: 93 % of control
Enzyme activity, % of control at 20 μM: 51 % of control

— US11440887B2, “Substituted 1,2,3,4-tetrahydroquinolines as inhibitors of repair enzyme 8-oxoguanine deoxyribonucleic acid glycosylase activity” (The Board of Trustees of the Leland Stanford Junior …, priority 2017, dated 2022)
